The target in experiment [1] is T1, Estrogen receptor (Homo sapiens) (UniProt P03372).
T1 sequence (whole entry): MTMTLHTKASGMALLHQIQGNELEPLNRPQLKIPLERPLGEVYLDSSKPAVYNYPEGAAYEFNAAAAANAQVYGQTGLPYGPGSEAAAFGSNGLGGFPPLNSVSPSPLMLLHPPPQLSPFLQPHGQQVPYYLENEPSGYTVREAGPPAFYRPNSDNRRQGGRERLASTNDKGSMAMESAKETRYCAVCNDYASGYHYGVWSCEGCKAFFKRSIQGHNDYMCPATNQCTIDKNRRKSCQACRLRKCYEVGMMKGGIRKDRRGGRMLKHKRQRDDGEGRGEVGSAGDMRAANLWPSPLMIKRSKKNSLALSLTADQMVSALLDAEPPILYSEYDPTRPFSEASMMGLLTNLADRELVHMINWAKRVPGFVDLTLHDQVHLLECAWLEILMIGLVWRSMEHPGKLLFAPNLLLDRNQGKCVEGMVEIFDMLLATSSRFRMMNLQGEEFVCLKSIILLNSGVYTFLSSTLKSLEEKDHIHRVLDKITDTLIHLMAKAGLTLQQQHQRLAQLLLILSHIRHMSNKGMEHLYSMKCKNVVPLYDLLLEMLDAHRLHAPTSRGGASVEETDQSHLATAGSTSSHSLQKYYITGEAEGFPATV
Kind of experiment: Displacement of [3H]estradiol from human ERalpha after 18 to 24 hrs. A general note: Loss of bound radioactivity is the signal in a displacement assay; it reports binding, not function.

The target in experiment [2] is T2, Estrogen receptor beta (Homo sapiens, UniProt Q92731). Kind of experiment: Displacement of [3H]estradiol from human ERbeta after 18 to 24 hrs.
The target in experiment [3] is T1, Estrogen receptor (Homo sapiens). Kind of experiment: Agonist activity at human ERalpha expressed in HepG2 cells up to 10^-5 M after 24 hrs by luciferase reporter gene assay relative to E2. Type of experiment: functional, cell-based.
The target of experiment [4] is T2, Estrogen receptor beta. Kind of experiment: Agonist activity at human ERbeta expressed in HepG2 cells up to 10^-5 M after 24 hrs by luciferase reporter gene assay relative to E2. Type of experiment: functional, cell-based.
The target of experiment [5] is T3, Estrogen receptor (Homo sapiens, UniProt P03372).
T3 sequence (P03372 whole entry): T1 sequence (whole entry)
Description: Agonist activity at human ERalpha expressed in HepG2 cells after 24 hrs by luciferase reporter gene assay

Experiment [6] addresses T2, Estrogen receptor beta.
Description: Agonist activity at human ERbeta expressed in HepG2 cells after 24 hrs by luciferase reporter gene assay

T2 sequence (Q92731 whole entry): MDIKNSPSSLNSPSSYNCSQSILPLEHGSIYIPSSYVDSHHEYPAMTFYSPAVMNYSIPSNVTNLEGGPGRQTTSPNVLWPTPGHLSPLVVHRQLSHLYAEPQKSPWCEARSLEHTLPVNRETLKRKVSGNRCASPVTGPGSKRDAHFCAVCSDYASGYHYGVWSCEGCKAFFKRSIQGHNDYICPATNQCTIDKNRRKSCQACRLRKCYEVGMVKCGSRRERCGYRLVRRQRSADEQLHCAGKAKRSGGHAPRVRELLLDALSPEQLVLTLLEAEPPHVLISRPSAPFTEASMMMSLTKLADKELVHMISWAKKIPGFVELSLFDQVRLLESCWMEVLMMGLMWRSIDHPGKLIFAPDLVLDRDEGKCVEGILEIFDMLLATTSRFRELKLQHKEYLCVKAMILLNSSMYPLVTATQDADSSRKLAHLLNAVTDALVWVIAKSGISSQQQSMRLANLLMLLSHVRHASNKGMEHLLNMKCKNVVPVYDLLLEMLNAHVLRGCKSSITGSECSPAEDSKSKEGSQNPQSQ

For orientation: EC50 means the concentration that produces a half-maximal response. On to `Cc1cc(O)ccc1C1=C(c2ccc(O)cc2C)[C@H]2[C@H]3C(=O)N(c4ccccc4)C(=O)[C@H]3[C@@H]1[S+]2[O-]` (mixture of isomers), for which the RBA in experiment [1] stood at 0.016%; in experiment [2], 0.014%. For the same compound, the Activity in experiment [3] is 65%; in experiment [4], 82%. Moreover, the results for the EC50 in experiment [5] and in experiment [6] were 150 nM and 800 nM, respectively.

Source of the values: ChEMBL document CHEMBL2029328, “Identification and structure-activity relationships of a novel series of estrogen receptor ligands based on 7-thiabicyclo[2.2.1]hept-2-ene-7-oxide” (J Med Chem, 2012).
